Results: paper PMC11200585, “Prospects for Prostate Cancer Chemotherapy: Cytotoxic Evaluation and Mechanistic Insights of Quinolinequinones with ADME/PK Profile” (Biomedicines, 2024)

Columns and labels:
Assay type in all cases: cell-based, human
[1] = tested on: U251; experiment: NCI-60 five-dose assay (CNS cancer); settings: SRB
[2] = tested on: SR; experiment: NCI-60 five-dose assay (leukemia); settings: 48 h, SRB
[3] = tested on: OVCAR-4; experiment: NCI-60 five-dose assay (ovarian cancer); settings: 48 h, SRB
[4] = tested on: RXF 393; experiment: NCI-60 five-dose assay (renal cancer); settings: 48 h, SRB
[5] = tested on: HCT-15; experiment: NCI-60 five-dose assay (colon cancer); settings: 48 h, SRB
[6] = tested on: TK-10; experiment: NCI-60 five-dose assay (renal cancer); settings: 48 h, SRB
[7] = tested on: SN12C; experiment: NCI-60 five-dose assay (renal cancer); settings: 48 h, SRB
[8] = tested on: OVCAR-5; experiment: NCI-60 five-dose assay (ovarian cancer); settings: 48 h, SRB
[9] = tested on: SNB-75; experiment: NCI-60 five-dose assay (CNS cancer); settings: 48 h, SRB
[10] = tested on: MDA-MB-435; experiment: NCI-60 five-dose assay (melanoma); settings: 48 h, SRB
[11] = tested on: SF-295; experiment: NCI-60 five-dose assay (CNS cancer); settings: 48 h, SRB
[12] = tested on: SF-268; experiment: NCI-60 five-dose assay (CNS cancer); settings: 48 h, SRB
[13] = tested on: NCI-H226; experiment: NCI-60 five-dose assay (non-small cell lung cancer); settings: 48 h, SRB
[14] = tested on: KM12; experiment: NCI-60 five-dose assay (colon cancer); settings: 48 h, SRB
[15] = tested on: NCI-H23; experiment: NCI-60 one-dose screen (non-small cell lung cancer); settings: 10 µM single dose, 48 h
Experimental: (§1) The obtained quinolinequinones were submitted to NCI, Bethesda, USA, and, as per standard protocol of NCI, all compounds were evaluated for their antiproliferative activity at single-dose assay (10 µM concentration in DMSO) on a panel of 60 cancer cell lines derived from leukemia, non-small-cell lung, colon, CNS, melanoma, ovarian, renal, prostate, and breast, as per protocol. Tested compounds were added to the microtiter culture plates followed by incubation for 48 h at 37 °C. Sulforhodamine B (SRB), a protein-binding dye, is used for endpoint determination. The percent of the growth of the treated cells was determined in comparison to the untreated control cells and the results of each tested compound were reported. Data from one-dose experiments pertain to the percentage growth at 10 μM [16, 17, 18].

[16] = tested on: EKVX; experiment: as above; settings: 10 µM single dose
Experimental: as §1

[17] = tested on: NCI-H322M; experiment: as above; settings: 10 µM single dose, 48 h
Experimental: as §1

[18] = tested on: NCI-H460; experiment: as above; settings: 10 µM single dose, 48 h
Experimental: as §1

[19] = tested on: NCI-H226; experiment: as above; settings: 10 µM single dose
Experimental: as §1

[20] = tested on: HOP-92; experiment: as above; settings: 10 µM single dose, 48 h
Experimental: as §1

[21] = tested on: A549/ATCC; experiment: as above; settings: 10 µM single dose, 48 h
Experimental: as §1

[22] = tested on: NCI-H522; experiment: as above; settings: 10 µM single dose, 48 h
Experimental: as §1

[23] = tested on: HOP-62; experiment: as above; settings: 10 µM single dose, 48 h
Experimental: as §1

[24] = tested on: SK-MEL-2; experiment: NCI-60 five-dose assay (melanoma); settings: 48 h, SRB
[25] = tested on: T-47D; experiment: NCI-60 five-dose assay (breast cancer); settings: Homo sapiens, T47D, 48 h, SRB
[26] = tested on: NCI-H522; experiment: NCI-60 five-dose assay (non-small cell lung cancer); settings: 48 h, SRB
[27] = tested on: M14; experiment: NCI-60 five-dose assay (melanoma); settings: 48 h, SRB
[28] = tested on: NCI-H322M; experiment: NCI-60 five-dose assay (non-small cell lung cancer); settings: 48 h, SRB
[29] = tested on: HL-60(TB); experiment: NCI-60 five-dose assay (leukemia); settings: 48 h, SRB
[30] = tested on: COLO 205; experiment: NCI-60 five-dose assay (colon cancer); settings: 48 h, SRB
[31] = tested on: CAKI-1; experiment: NCI-60 five-dose assay (renal cancer); settings: 48 h, SRB
[32] = tested on: BT-549; experiment: NCI-60 five-dose assay (breast cancer); settings: 48 h, SRB
[33] = tested on: A498; experiment: NCI-60 five-dose assay (renal cancer); settings: 48 h, SRB
[34] = tested on: UO-31; experiment: NCI-60 five-dose assay (renal cancer); settings: 48 h, SRB
[35] = Homo sapiens, read-out: LC50 (the source's name)

SMILES: COc1ccccc1NC1=C(Cl)C(=O)c2nc(C)ccc2C1=O [AQQ1]
- TGI ([1]; 48 h): 3.73 µM
- GI50 ([1]; Homo sapiens, U-251, 48 h): 1.85 µM
- LC50 (concentration killing 50% of cells) ([1]; Homo sapiens, U-251, 48 h): 7.53 µM
- TGI [2]: 4.25 µM
- GI50 ([2]; Homo sapiens): 0.794 µM
- CC50 [2, 35]: > 100 µM
- TGI [3]: 2.49 µM
- GI50 ([3]; Homo sapiens): 1.21 µM
- LC50 (concentration killing 50% of cells) ([3]; Homo sapiens): 5.11 µM
- TGI [4]: 2.76 µM
- GI50 ([4]; Homo sapiens): 1.42 µM
- LC50 ([4]; Homo sapiens): 5.36 µM
- TGI [5]: 3.02 µM
- GI50 ([5]; Homo sapiens): 1.33 µM
- CC50 [5, 35]: 6.83 µM
- TGI [6]: 3.86 µM
- GI50 ([6]; Homo sapiens): 2.34 µM
- LC50 (concentration killing 50% of starting cells) ([6]; Homo sapiens): 6.36 µM
- TGI [7]: 3.29 µM
- GI50 ([7]; Homo sapiens): 1.7 µM
- LC50 (concentration killing 50% of starting cells) ([7]; Homo sapiens): 6.36 µM
- TGI [8]: 3.42 µM
- GI50 ([8]; Homo sapiens): 1.86 µM
- LC50 (lethal concentration 50%) ([8]; Homo sapiens): 6.29 µM
- TGI [9]: 2.84 µM
- GI50 ([9]; Homo sapiens): 1.5 µM
- LC50 (50% lethal concentration) ([9]; Homo sapiens): 5.39 µM
- TGI [10]: 3.11 µM
- GI50 ([10]; Homo sapiens): 1.7 µM
- CC50 [10, 35]: 5.67 µM
- TGI [11]: 3.42 µM
- GI50 ([11]; Homo sapiens): 1.85 µM
- LC50 (50% lethal concentration) ([11]; Homo sapiens): 6.32 µM
- TGI [12]: 3.05 µM
- GI50 ([12]; Homo sapiens): 1.53 µM
- LC50 (concentration killing 50% of cells) ([12]; Homo sapiens): 6.06 µM
- TGI [13]: 4.52 µM
- GI50 ([13]; Homo sapiens): 1.93 µM
- LC50 ([13]; Homo sapiens): 14.1 µM
- TGI [14]: 3.08 µM
- GI50 ([14]; Homo sapiens): 1.49 µM
- CC50 [14, 35]: 6.4 µM
- GP (growth percentage) [15]: −8.37%
- GP (growth percentage) ([16]; 48 h): 28.52%
- inhibition at 10 µM ([16]; Homo sapiens): 71.5%
- GP (growth percentage) [17]: 71.14%
- GP (growth percentage) [18]: 70.83%
- GP (growth percentage) ([19]; 48 h): 29.65%
- inhibition at 10 µM ([19]; Homo sapiens): 70.3%
- GP (growth percentage) [20]: −83.81%
- GP (growth percentage) [21]: 101.36%
- GP (growth percentage) [22]: −48.50%
- GP (growth percentage) [23]: 74.12%
- TGI [24]: 3.34 µM
- GI50 ([24]; Homo sapiens): 1.81 µM
- CC50 [24, 35]: 6.19 µM
- GI50 [25]: 1.37 µM
- CC50 ([25]; read-out: LC50 (the source's name)): > 100 µM
- TGI [26]: 3.36 µM
- GI50 ([26]; Homo sapiens): 1.81 µM
- LC50 ([26]; Homo sapiens): 6.24 µM
- TGI [27]: 3.81 µM
- GI50 ([27]; Homo sapiens): 1.82 µM
- LC50 ([27]; Homo sapiens): 7.96 µM
- TGI [28]: 7.69 µM
- GI50 ([28]; Homo sapiens): 2.5 µM
- CC50 [28, 35]: 27.6 µM
- TGI [29]: 3.52 µM
- GI50 ([29]; Homo sapiens): 1.37 µM
- CC50 [29, 35]: 9.03 µM
- TGI [30]: 3.87 µM
- GI50 ([30]; Homo sapiens): 1.78 µM
- TGI [31]: 2.87 µM
- GI50 ([31]; Homo sapiens): 1.5 µM
- LC50 (lethal concentration, 50% net cell kill) ([31]; Homo sapiens): 5.47 µM
- TGI [32]: 3.27 µM
- GI50 ([32]; Homo sapiens): 1.72 µM
- LC50 (concentration giving 50% net cell kill) ([32]; Homo sapiens): 6.19 µM
- TGI [33]: 4.60 µM
- GI50 ([33]; Homo sapiens): 1.9 µM
- LC50 ([33]; Homo sapiens): 13.1 µM
- TGI [34]: 2.73 µM
- GI50 ([34]; Homo sapiens): 1.42 µM
- LC50 (lethal concentration 50%) ([34]; Homo sapiens): 5.26 µM
